From patent US20250082656A1, “DOSAGE REGIMENS FOR TREATMENT OF DENGUE INFECTION” (Atea Pharmaceuticals, Inc., priority 2022, published 2025)

What was measured:
Dengue serotype 4 = assay: In vitro antiviral potency, summary over strains, Dengue serotype 4; format: cell-based; conditions: Dengue virus
Chikungunya = assay: Antiviral specificity panel, Chikungunya; format: cell-based; conditions: Chikungunya virus; RNA virus, Huh-7
flaviviruses = assay: organism not typed; conditions: 144 h, read-out: concentration to achieve 50% inhibition (EC50) of the virus-induced cytopathic effect (CPE), range over 11 strains of 7 flaviviruses in 3 cell types, 3- to 6-day incubation
West Nile (WNV) = assay: microbe, parasite or virus in culture; format: cell-based; conditions: Kern 515, WNo2, Huh-7, VYR assay
[1] = Cytotoxicity in Vero cells; format: cell-based; conditions: African green monkey, Table 2, Vero, parallel to the virus of the line
Procedure: To assess the antiviral specificity of Compound 1 (AT-281), serial dilutions were incubated with various host cell lines infected with a panel of DNA and RNA viruses other than flaviviruses. The activity of Compound 1 (AT-281) was measured in infected cells using the neutral red assay to determine the effective concentration required to inhibit viral replication 50% (EC50) (described in Example 3) and the threshold concentration required to obtain a perceptible effect on 50% of the cells incubated without virus (CC50). Compound 1 (AT-281) had no activity against the DNA viruses tested and was only weakly or not active against several RNA viruses (Table 2).

Dengue serotype 3 = assay: In vitro antiviral potency, summary over strains, Dengue serotype 3; format: cell-based; conditions: Dengue virus
DENV-2 = assay: CPE (MTT) assay, DENV-2 in human PBMCs and BHK-21 cells; format: cell-based, Dengue virus
[2] = In vivo formation of AT-9010 in PBMCs, mice
DENV1 NS5 = DENV1 NS5 (Dengue virus type 1, UniProt P17763); assay: Thermal shift assay, DENV1 NS5; conditions: read-out: ΔTM
DENV1 NS5, sequence (P17763 2494-3392): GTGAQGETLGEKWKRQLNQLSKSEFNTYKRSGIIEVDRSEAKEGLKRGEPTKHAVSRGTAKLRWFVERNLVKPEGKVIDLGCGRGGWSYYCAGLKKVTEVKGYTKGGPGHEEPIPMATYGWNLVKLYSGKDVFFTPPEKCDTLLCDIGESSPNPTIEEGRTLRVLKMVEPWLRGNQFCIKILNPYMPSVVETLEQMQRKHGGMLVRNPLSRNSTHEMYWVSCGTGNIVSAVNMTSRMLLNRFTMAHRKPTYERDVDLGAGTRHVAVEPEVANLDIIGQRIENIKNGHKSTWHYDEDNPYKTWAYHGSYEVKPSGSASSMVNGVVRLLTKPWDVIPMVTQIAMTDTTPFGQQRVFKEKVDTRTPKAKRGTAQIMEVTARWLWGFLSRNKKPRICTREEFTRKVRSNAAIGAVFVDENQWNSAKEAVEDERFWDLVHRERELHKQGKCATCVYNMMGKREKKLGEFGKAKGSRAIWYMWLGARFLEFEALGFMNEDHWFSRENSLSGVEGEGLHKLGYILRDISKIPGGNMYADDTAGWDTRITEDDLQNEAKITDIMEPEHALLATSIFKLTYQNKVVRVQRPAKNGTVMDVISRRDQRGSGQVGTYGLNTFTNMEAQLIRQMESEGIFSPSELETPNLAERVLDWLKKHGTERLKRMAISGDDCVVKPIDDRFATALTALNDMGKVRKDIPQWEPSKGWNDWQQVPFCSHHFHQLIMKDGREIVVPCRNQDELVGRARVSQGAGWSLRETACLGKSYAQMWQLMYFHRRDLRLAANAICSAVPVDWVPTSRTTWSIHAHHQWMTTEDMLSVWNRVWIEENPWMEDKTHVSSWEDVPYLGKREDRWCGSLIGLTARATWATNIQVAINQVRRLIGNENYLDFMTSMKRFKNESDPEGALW

[3] = biological target: human cellular DNA-dependent DNA polymerase β (Homo sapiens, UniProt P06746); conditions: previously shown (Good et al.); read-out: estimated IC50; cited from earlier work
DENV1 MTase domain = DENV1 MTase domain (Dengue virus type 1, UniProt P17763); assay: Thermal shift assay, DENV1 MTase domain; conditions: read-out: ΔTM
DENV1 MTase domain, sequence (P17763 2495-2756): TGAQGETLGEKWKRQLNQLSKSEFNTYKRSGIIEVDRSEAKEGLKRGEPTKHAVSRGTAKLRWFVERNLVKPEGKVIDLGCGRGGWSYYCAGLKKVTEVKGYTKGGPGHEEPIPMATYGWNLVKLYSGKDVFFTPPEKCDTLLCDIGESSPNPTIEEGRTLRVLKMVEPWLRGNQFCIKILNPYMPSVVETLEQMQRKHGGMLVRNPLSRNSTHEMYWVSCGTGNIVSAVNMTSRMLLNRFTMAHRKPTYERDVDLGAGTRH

[4] = test system: NS5 RNA dependent RNA polymerase (RdRp); assay: Competitive nucleotide incorporation assays, all four DENV serotypes (summary); format: biochemical, Dengue virus; conditions: approximately
Procedure: As described in Example 10 and shown in FIG. 1, the active metabolite of Compound 2 or Compound 1 (Compound 5) acts as a GTP analog and is incorporated into RNA by the NS5 RNA dependent RNA polymerase (RdRp), immediately terminating synthesis.
The chain-terminating efficiency of Compound 5 was measured in competitive nucleotide incorporation assays using all four DENV serotypes. […] In comparison, sofosbuvir triphosphate is incorporated into the RNA less than 1 time for every 100 UTP (native uridine triphosphate) incorporations.

DENV3 NS5 = DENV3 NS5 (Dengue virus type 3, UniProt Q6YMS4); assay: Thermal shift assay, DENV3 NS5; conditions: read-out: ΔTM
DENV3 NS5, sequence (Q6YMS4 2491-3390): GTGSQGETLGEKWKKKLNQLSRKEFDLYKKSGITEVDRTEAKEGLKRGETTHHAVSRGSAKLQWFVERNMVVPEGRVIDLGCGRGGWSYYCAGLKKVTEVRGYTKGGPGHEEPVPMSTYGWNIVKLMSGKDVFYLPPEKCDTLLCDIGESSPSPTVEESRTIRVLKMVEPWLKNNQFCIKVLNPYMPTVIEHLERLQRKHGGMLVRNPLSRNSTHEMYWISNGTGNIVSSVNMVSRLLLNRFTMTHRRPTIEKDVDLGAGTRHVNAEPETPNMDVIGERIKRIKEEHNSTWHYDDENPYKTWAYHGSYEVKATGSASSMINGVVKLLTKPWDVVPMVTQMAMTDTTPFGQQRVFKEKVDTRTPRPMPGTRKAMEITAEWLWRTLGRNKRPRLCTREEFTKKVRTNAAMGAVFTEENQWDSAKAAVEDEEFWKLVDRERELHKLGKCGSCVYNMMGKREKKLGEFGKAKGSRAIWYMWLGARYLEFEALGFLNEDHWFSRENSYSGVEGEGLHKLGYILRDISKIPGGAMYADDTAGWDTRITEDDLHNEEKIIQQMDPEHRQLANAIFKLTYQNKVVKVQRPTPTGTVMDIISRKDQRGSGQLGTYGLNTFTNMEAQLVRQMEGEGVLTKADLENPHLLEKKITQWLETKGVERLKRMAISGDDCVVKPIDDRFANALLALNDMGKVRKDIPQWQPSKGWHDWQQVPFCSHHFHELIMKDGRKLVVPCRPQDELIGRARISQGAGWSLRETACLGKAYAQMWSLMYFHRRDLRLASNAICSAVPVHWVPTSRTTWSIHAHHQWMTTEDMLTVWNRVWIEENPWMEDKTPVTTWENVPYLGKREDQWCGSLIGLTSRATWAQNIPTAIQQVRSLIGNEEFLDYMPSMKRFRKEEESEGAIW

DENV4 MTase domain = DENV4 MTase domain (Dengue virus type 4, UniProt P09866); assay: Thermal shift assay, DENV4 MTase domain; conditions: read-out: ΔTM
DENV4 MTase domain, sequence (P09866 2489-2751): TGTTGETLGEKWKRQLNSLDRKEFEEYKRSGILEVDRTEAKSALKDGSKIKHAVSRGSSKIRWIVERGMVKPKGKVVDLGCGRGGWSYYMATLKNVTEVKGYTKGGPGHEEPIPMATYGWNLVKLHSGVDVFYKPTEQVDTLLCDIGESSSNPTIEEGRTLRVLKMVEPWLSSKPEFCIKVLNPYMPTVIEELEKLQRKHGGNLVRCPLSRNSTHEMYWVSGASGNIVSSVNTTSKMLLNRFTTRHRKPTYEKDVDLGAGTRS

Structure (SMILES) | EC50 (Dengue serotype 4) | EC50 (Chikungunya) | EC50 (flaviviruses) | EC90 (West Nile (WNV)) | CC50 [1] | EC50 (Dengue serotype 3) | EC50 (DENV-2; DENV-2 clinical isolate, BHK-21, CPE) | EC50 (DENV-2; Dengue virus, DENV2, BHK-21, DENV-2 NGC, BHK-21, CPE read-out) | concentration of AT-9010 in PBMCs ([2]; loading dose 500 mg/kg then 250 mg/kg 4 h later, 4 h after the second dose) | concentration of AT-9010 in PBMCs ([2]; loading dose 500 mg/kg then 250 mg/kg 4 h later, 12 h after the second dose) | concentration of AT-9010 in PBMCs ([2]; single oral dose 50 mg/kg, 12 h) | ΔTm at 100 µM (DENV1 NS5) | IC50 [3] | ΔTm at 100 µM (DENV1 MTase domain) | GTPs incorporated for one AT-9010 incorporated [4] | ΔTm at 100 µM (DENV3 NS5) | ΔTm at 100 µM (DENV4 MTase domain)
CNc1nc(N)nc2c1ncn2[C@@H]1O[C@H](CO[P@](=O)(N[C@@H](C)C(=O)OC(C)C)Oc2ccccc2)[C@@H](O)[C@@]1(C)F [Compound 1, isopropyl ((R)-(((2R,3R,4R,5R)-5-(2-amino-6-(methylamino)-9H-purin-9-yl)-4-fluoro-3-hydroxy-4-methyltetrahydrofuran-2-yl)methoxy)(phenoxy)phosphoryl)-L-alaninate] | < 1200 nM | 54200 nM | 190 to 1410 nM | 430 nM | > 100000 nM | < 1500 nM | 1050 nM | 3820 nM | – | – | – | – | – | – | – | – | –
C[C@@]1(F)[C@H](O)[C@@H](COP(=O)(O)OP(=O)(O)OP(=O)(O)O)O[C@H]1n1cnc2c(=O)[nH]c(N)nc21 [Compound 5] | – | – | – | – | – | – | – | – | 0.297 pmol/10^6 cells | 0.322 pmol/10^6 cells | 0.092 pmol/10^6 cells | 6.1 ± 0.1 °C | > 100000 nM | 3.8 ± 0.1 °C | 7-8 | 5 ± 0.1 °C | 2.9 ± 0.1 °C
